Assay in all cases: NCI tumour cell line growth inhibition, 48 h
In assay [1] the test system is CCRF-CEM leukemia.
In assay [2] the test system is HCT-116 colon.
The subject of assay [3] is K-562 leukemia.
In assay [4] the test system is MDA-MB-435.
For assay [5], the system named is NCI-H23 lung.
In assay [6] the test system is OVCAR-3 ovarian.
Assay [7] deals with SK-MEL-5 melanoma.
Assay [8] relates to SNB-75 CNS.
For assay [9], the system named is SR leukemia.
Assay [10] deals with BT-549 breast.

Each structure is given as a SMILES string.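 96-well plates; 48 h exposure; 5 concentrations. Endpoints by linear interpolation between flanking doses. Not reached: highest tested concentration assigned. GI50: concentration for 50% inhibition of growth. At the TGI there is no net growth.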

In the case of `COC(=O)C1Cc2c([nH]c3ccccc23)-c2[nH]c3ccccc3c2CC(NC(C)=O)C(=O)N2CCCC2C(=O)N1` (configuration not stated), the TGI in [1], in assay [2], in [3], in assay [4], in assay [5] and in assay [6] was over 100 µM in each case. Also, the TGI in assay [7], in assay [8] and in assay [9] was over 100 µM each time.
As to `CCSc1[nH]c(NC(=NC(C)C)NC(=O)c2ccccc2)c(C(N)=O)c1C(N)=O`, the TGI in [1], in assay [3], in [4], in assay [5], in [7] and in [8] was over 10 µM throughout. The TGI in assay [9] was over 10 µM.
With `COc1ccc(/C=C(\C2=NC(=O)CS2)c2nc3ccccc3[nH]2)cc1`, the TGI in assay [1] is over 100 µM; in assay [2], over 100 µM; in assay [3] it was over 100 µM; in assay [5] it was over 100 µM; in [6], 52.3 µM; in assay [7], over 100 µM. Moreover, the TGI is 71.6 µM in assay [8] and over 100 µM in assay [9].
As to `CC(C)(CO)NC(=O)c1cccs1`, the TGI in assay [1], in [2], in assay [3], in assay [4], in assay [5] and in assay [6] was over 100 µM throughout. Further, the TGI in [7] and in [9] was over 100 µM in each case.
Turning to `Cc1ccc(S(=O)(=O)NCCCSCCO)cc1`, the TGI in [1], in assay [2], in assay [3], in assay [4], in assay [5] and in assay [6] was over 100 µM in each case. For the same compound, the TGI in assay [7], in assay [8] and in [9] was over 100 µM each time.
For `CCN(CCN(CC)C(=O)NC)C(=O)NC`, the TGI in assay [10], in assay [1], in [2], in assay [3], in [5] and in assay [7] was over 100 µM throughout. Also, the TGI in assay [8] and in assay [9] was over 100 µM throughout.
For `CC(C)(/C=N/O)/[N+]([O-])=C/c1ccccc1`, the TGI in assay [2], in [4], in [5], in assay [6], in assay [7] and in [8] was over 100 µM each time.
Turning to `COc1ccc(OC)c(-c2cc(=O)c3cc4c(cc3[nH]2)OCO4)c1`, the TGI in assay [1] was over 100 µM; in [2], over 35.7 µM; in [3] it was over 100 µM; in assay [5], 15.4 µM; in assay [6] it was over 55.2 µM; in assay [7], 28 µM. Moreover, the values for the TGI in [8] and in assay [9] were over 38.1 µM and over 27.9 µM, respectively.
For the compound `O=P(Nc1cccc(Cl)c1)(Oc1ccccc1)N(CCCl)CCCl` (configuration not stated), the TGI in assay [1] was over 100 µM; in assay [2], 25.8 µM; in assay [3], over 100 µM; in assay [5], 31.8 µM; in [6], 35.7 µM; in [7] it was 25.3 µM. In addition, the TGI is 30.4 µM in assay [8] and over 100 µM in assay [9].
With `O=C1CCc2ccccc2O1`, the TGI in assay [1], in assay [2], in assay [3], in assay [4], in [5] and in [6] was over 100 µM throughout. The TGI in assay [8] and in assay [9] was over 100 µM throughout.
For the compound `Cc1cc2c(cc1-c1cc3c(cc1C)C(C(C)C)=C(O)C(=O)/C3=C\Nc1ccccn1)/C(=C/Nc1ccccn1)C(=O)C(O)=C2C(C)C`, the TGI in assay [1], in assay [2], in [3], in assay [4], in assay [5] and in assay [6] was over 100 µM throughout. Moreover, the TGI in assay [7], in [8] and in assay [9] was over 100 µM in each case.
For `C[C@]12CCC(=O)C=C1CC[C@@H]1C2CC[C@@]2(C)C1CC[C@@H]2OC(=O)C12OC1CCC2=O` (some centres not stated), the TGI came to 32.6 µM in assay [1]; 29.2 µM in assay [2]; 59.4 µM in assay [3]; 33.6 µM in assay [5]; 32.9 µM in assay [6]; 29.7 µM in assay [7]. The TGI in [8] is 33.9 µM; in assay [9], 53.4 µM.
Turning to `Cc1ccc(O)cc1` (tested in a mixture with another compound), the TGI in [10], in assay [1], in [2], in [3], in assay [4] and in assay [5] was over 100 µM each time. The TGI in assay [6] and in assay [7] was over 100 µM in each case.
For `COCC1N=C(c2cc(OC)c(OC)c(OC)c2-c2cc3c(cc2[C@@H](C)O)OCO3)O[C@H]1c1ccccc1` (some centres not stated), the TGI in [1], in assay [2], in assay [3], in [5], in assay [6] and in [7] was over 100 µM in each case. The compound further came in with a TGI in assay [8] of over 72.3 µM.
For the compound `COc1cc(O)c2c(=O)c(OC)c(-c3ccc(OC)c(OC)c3)oc2c1.[Sn]`, the TGI in [10], in assay [3], in assay [6], in [7] and in [8] was over 100 µM throughout. The GI50 in assay [3] was over 100 µM; in assay [6], over 100 µM; in assay [7], 32.9 µM.
Regarding `O=C1C(=Cc2ccc([N+](=O)[O-])o2)C(=O)N(CCc2ccccc2)S(=O)(=O)N1CCc1ccccc1`, the TGI was over 100 µM in [1]; 29.9 µM in assay [2]; over 100 µM in [3]; 31.9 µM in assay [5]; 31.4 µM in assay [6]; 44.1 µM in [7]. Further, the TGI was over 100 µM in assay [8] and 38.4 µM in assay [9].
For `O=C(CSc1nnc(-c2ccc(N=Cc3ccc(Cl)cc3)cc2)o1)Nc1cccc([N+](=O)[O-])c1`, the TGI in assay [1], in assay [2], in assay [3], in assay [5], in assay [7] and in assay [8] was over 100 µM in each case. In addition, in [9], the TGI was over 100 µM.
Take `COC(=O)CC1NC(=O)C1C(C)(OC)OC` (configuration not stated): the TGI in assay [1], in [2], in [3], in assay [5], in assay [6] and in [7] was over 100 µM throughout. The TGI in assay [8] and in assay [9] was over 100 µM in each case.
Take `CCC1OC2C(CC=C(C)C)=C3OC(C)(O)C(C)(CC)C(=O)C3=C3OC(=O)C=C1C32` (configuration not stated): the TGI is 49.5 µM in assay [10]; over 100 µM in assay [1]; 36.9 µM in assay [2]; 86.8 µM in assay [3]; over 100 µM in assay [4]; 70.7 µM in [5]. In assay [7], the TGI turned out to be 34.9 µM.
Take `CCOC(=O)[C@@]12NN=N[C@@H]1[C@H]1CO[C@H](c3ccccc3)N1C2=O`: the TGI in [10] was 25.9 µM; in [1], over 100 µM; in assay [2], 32.5 µM; in assay [4], 35.6 µM; in assay [5], 32.8 µM; in assay [6], 24.5 µM. The TGI in assay [7] came to 24.5 µM.
Consider `O=C1C(=O)N(C23CC4CC(CC(C4)C2)C3)C(=S)N1c1ccccc1`, for which the TGI in assay [1], in assay [2], in assay [3], in assay [4], in assay [5] and in [7] was over 100 µM each time. The TGI in [8] and in assay [9] was over 100 µM in each case.
In the case of `Nc1ccn(CCCC(c2ccccc2)P(=O)(O)O)c(=O)n1` (configuration not stated), the TGI in assay [1], in assay [2], in [3], in [5], in assay [6] and in assay [7] was over 100 µM in each case. The TGI in assay [8] and in assay [9] was over 100 µM throughout.
`Cc1cc(=O)[nH]c(NNC(C#N)c2ccc(N(C)C)cc2)n1` (configuration not stated): the TGI in assay [1], in assay [2], in assay [3], in assay [5], in assay [6] and in assay [7] was over 100 µM each time. Besides, the TGI in [8] and in assay [9] was over 100 µM in each case.
Regarding `COc1cccc(/C=N/NC(=O)CN(C)C)c1O`, the TGI in assay [10], in assay [1], in assay [2], in assay [3], in [4] and in assay [5] was over 100 µM each time. The TGI in assay [6] and in assay [7] was over 100 µM each time.
In the case of `CN(C)CCNC(=O)c1cccc2[nH]c(-c3ccc(Cl)cc3)nc12`, the TGI was 35.7 µM in assay [1]; 13.8 µM in assay [2]; 12.6 µM in assay [3]; 21.5 µM in assay [5]; 27.7 µM in assay [6]; 16.7 µM in assay [7]. This compound yielded a TGI in assay [8] of 15.3 µM.
As for `COc1ccc2nc3c([N+](=O)[O-])ccc(NCCCN(C)C)c3c(N)c2c1`, the TGI in assay [1] was found to be 1.26 µM; in assay [2] it was 0.464 µM; in assay [3], 1.41 µM; in assay [4] it was 3.66 µM; in [5], 3.95 µM; in assay [6] it was 3 µM. For the same compound, the TGI in assay [7] came out at 3.63 µM; in [8], 3.47 µM; in assay [9], 4.23 µM.
Consider `CCc1n[nH]c(=O)n1N=C(c1ccccc1)c1ccccc1`, for which the TGI in [10], in assay [1], in assay [2], in assay [3], in [4] and in [5] was over 100 µM each time. For the same compound, the TGI in [6] and in [7] was over 100 µM throughout.
For `CC(=O)Nc1ccc(C(=O)n2[nH]c(C)c(/C=C3\C(=O)C=Cc4ccccc43)c2=O)cc1`, the TGI in [1], in [2], in assay [3], in [5], in assay [6] and in [7] was over 100 µM in each case. Besides, the TGI in [8] and in [9] was over 100 µM each time.
On to `Cc1cc(N)c2cc(NC(=O)Nc3ccc4nc(C)cc(N)c4c3)ccc2n1`, for which the TGI in [10], in [1], in [2], in [3], in assay [4] and in assay [5] was over 100 µM each time. For the same compound, the TGI in assay [6] and in [7] was over 100 µM in each case.
As to `O=C1NC2OC(CO)C(O)C(O)C2O1` (configuration not stated), the TGI in [1], in assay [2], in assay [3], in assay [5], in assay [6] and in assay [7] was over 100 µM in each case. The TGI in assay [8] and in assay [9] was over 100 µM throughout.
Regarding `COc1ccc(C2NC3=C(CCCC3)N2)cc1`, the TGI in [1] is over 100 µM; in assay [2], over 100 µM; in assay [5] it was over 100 µM; in [6] it was over 100 µM; in [7] it was 67.5 µM; in assay [8], over 100 µM. The compound also came in with a TGI in assay [9] of over 100 µM.
`Brc1ccc(C[N+]23CN4CN(CN(C4)C2)C3)cc1`: the TGI is 62.9 µM in [1]; 79.8 µM in assay [2]; over 100 µM in assay [3]; over 100 µM in assay [5]; over 100 µM in assay [6]; over 100 µM in assay [8].
Turning to `COc1cc(CC(=O)c2cc3c(cc2-c2ccccc2)OCO3)cc(OC)c1OC`, the TGI was over 100 µM in assay [1]; over 100 µM in assay [2]; over 100 µM in assay [3]; over 100 µM in assay [5]; over 100 µM in [6]; 27.1 µM in assay [7]. For the same compound, the TGI in assay [8] amounted to 35.8 µM; in [9], 72.3 µM.

The values above are taken from PubChem BioAssay (NCI).
